# Laboratory results reported in ChEMBL document CHEMBL1201862, “PubChem BioAssay data set” (2004).
# Active and inactive are the calls of the source.
# Key:
# [1] = biological target: Cyclin-dependent kinase 5/CDK5 activator 1 (Homo sapiens, UniProt Q00535); test: CDK5/p35 kinase inhibitors, dose response, biochemical, cherry-picked samples, set 2 (AID 504545)
# [2] = biological target: Heat shock protein HSP 90-alpha (Homo sapiens, UniProt P07900); type: functional, organism-based
# [3] = microbe, parasite or virus in culture; type: functional; settings: Mycobacterium tuberculosis
# [4] = biological target: Neurotensin receptor type 1 (Homo sapiens, UniProt P30989); type: functional;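 also: Image-based confirmatory dose-response assay measuring agonist activity at NTR1; NTR1-expressing U2OS osteosarcoma cells imaged for beta-arrestin GFP spot formation; agonist potency where compounds increase beta-arrestin recruitment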
# Chain of Neurotensin receptor type 1 (P30989 whole entry): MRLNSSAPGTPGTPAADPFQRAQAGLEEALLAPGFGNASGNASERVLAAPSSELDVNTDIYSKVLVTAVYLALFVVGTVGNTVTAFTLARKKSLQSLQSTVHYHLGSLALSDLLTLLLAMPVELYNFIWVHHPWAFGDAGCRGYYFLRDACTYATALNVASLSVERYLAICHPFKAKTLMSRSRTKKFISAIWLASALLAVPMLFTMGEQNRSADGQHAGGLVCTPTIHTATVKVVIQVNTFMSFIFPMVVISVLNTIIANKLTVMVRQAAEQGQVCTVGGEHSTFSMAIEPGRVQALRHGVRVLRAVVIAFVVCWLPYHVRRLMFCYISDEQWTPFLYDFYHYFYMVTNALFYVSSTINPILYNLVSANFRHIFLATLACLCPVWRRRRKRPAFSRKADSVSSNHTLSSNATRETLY
# [5] = biological target: T1, High affinity choline transporter 1 (Homo sapiens, UniProt Q9GZV3); test: CHT inhibitors, dose response, cell-based, 5-point CRC, membrane potential dye (AID 504840); type: functional
# T1 sequence (Q9GZV3 whole entry): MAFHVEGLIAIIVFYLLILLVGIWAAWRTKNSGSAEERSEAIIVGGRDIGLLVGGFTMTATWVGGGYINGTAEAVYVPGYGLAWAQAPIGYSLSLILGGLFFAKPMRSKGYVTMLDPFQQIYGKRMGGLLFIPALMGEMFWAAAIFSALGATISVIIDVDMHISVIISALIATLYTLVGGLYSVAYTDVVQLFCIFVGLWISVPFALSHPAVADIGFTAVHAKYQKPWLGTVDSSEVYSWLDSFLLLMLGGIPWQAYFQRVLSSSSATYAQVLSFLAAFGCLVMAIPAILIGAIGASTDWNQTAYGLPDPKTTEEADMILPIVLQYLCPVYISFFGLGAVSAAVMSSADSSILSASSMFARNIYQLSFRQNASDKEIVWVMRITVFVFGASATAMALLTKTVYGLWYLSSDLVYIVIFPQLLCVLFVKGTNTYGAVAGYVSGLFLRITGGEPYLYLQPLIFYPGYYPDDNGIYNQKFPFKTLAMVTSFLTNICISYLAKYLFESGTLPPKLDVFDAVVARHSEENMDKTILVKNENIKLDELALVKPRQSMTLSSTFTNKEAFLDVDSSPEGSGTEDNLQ
# INS1 = test: beta cell apoptosis inhibitors, cytokine rescue, dose response, luminescence, retest (AID 449756); type: functional, cell-based; settings: Rattus norvegicus, INS1;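 also: cell death triggered by IL-1 beta plus TNF-alpha plus IFN-gamma mixture; protective hits raise ATP signal compared with cytokine alone wells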
# [6] = biological target: NACHT, LRR and PYD domains-containing protein 3 (Homo sapiens, UniProt Q96P20); test: NALP3 inhibitors in yeast, dose response, luminescent (AID 488799); type: functional
# Chain of NACHT, LRR and PYD domains-containing protein 3 (Q96P20 whole entry, the tested form may be a part): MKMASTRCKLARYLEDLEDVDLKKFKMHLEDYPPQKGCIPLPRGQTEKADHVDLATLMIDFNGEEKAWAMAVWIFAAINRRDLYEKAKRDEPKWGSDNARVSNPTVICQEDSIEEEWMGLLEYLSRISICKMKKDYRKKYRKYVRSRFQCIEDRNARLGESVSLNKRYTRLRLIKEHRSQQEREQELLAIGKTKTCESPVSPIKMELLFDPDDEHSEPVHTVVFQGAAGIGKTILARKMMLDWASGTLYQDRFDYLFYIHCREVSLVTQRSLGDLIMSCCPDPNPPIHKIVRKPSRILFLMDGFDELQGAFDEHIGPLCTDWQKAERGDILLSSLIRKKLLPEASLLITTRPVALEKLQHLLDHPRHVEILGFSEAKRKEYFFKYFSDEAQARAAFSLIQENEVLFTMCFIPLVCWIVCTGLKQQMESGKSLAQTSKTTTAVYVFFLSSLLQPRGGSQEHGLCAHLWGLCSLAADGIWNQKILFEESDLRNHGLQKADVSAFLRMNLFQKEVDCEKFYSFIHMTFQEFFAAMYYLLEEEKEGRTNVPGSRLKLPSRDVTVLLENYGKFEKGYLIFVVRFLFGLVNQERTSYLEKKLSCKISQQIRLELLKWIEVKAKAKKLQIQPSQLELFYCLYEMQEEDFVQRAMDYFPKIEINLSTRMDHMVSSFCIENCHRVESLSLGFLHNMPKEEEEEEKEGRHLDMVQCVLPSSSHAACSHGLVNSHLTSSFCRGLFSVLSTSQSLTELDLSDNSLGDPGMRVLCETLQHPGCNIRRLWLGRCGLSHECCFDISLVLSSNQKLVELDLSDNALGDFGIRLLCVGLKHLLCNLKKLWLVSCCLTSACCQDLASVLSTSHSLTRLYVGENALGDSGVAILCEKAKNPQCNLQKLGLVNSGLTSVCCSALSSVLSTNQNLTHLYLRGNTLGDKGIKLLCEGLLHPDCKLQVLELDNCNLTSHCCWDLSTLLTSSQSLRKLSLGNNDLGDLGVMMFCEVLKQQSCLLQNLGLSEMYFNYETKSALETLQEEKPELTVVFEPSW
# [7] = Cytotoxicity screening for potential Inhibitors of Bacterial Capsule Biogenesis. [Related pubchem assays (depositor defined):AID488970]; type: functional
# [8] = biological target: DNA damage-inducible transcript 3 protein (Mus musculus, UniProt P35639); type: functional, Cricetulus griseus
# Chain of DNA damage-inducible transcript 3 protein (P35639 whole entry): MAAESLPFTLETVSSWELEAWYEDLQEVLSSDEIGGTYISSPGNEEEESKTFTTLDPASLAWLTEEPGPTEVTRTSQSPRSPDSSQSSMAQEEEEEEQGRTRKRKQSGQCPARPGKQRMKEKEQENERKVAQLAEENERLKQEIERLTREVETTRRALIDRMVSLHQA
# X-box-binding protein 1 = X-box-binding protein 1 (Homo sapiens, UniProt P17861); type: functional, Cricetulus griseus;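 also: confirmatory dose-response counter-screen serving a CHOP assay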
# [9] = biological target: Luciferin 4-monooxygenase (Photinus pyralis, UniProt P08659); test: firefly luciferase enzyme inhibitors, dose response, biochemical, luminescence (AID 1891)
# Chain of Luciferin 4-monooxygenase (P08659 whole entry): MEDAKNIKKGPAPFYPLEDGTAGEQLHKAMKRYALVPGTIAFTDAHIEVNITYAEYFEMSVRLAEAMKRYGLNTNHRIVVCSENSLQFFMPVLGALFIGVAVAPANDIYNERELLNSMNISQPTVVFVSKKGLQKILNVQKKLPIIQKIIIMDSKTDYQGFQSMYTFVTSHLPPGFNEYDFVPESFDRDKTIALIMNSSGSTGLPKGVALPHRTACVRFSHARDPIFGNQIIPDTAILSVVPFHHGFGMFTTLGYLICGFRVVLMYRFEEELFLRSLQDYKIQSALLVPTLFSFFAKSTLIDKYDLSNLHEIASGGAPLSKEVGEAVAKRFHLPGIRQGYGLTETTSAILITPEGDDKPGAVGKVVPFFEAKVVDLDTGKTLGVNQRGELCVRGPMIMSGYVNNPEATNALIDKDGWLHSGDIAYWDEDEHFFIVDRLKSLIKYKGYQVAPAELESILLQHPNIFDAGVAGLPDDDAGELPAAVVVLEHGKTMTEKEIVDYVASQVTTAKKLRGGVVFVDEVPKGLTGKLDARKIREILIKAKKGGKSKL
# [10] = Luminescence Cell-Based Dose Confirmation HTS to Identify Inhibitors of Platelet Dense Granule Release. [Related pubchem assays: 1663 (Primary HTS), 1678 (Summary of Project)]; type: functional
# [11] = biological target: Metabotropic glutamate receptor 4 (Homo sapiens, UniProt Q14833); test: Modulation of the Metabotropic Glutamate Receptor mGluR4: Potency at human mGluR4. Modulation of intracellular Ca2+ using Fluo-4, AM, in CHO expressing recombinant receptor [Related pubchem assays (depositor defined):AID2437, AID2807]; type: functional, cell-based
# Chain of Metabotropic glutamate receptor 4 (Q14833 whole entry): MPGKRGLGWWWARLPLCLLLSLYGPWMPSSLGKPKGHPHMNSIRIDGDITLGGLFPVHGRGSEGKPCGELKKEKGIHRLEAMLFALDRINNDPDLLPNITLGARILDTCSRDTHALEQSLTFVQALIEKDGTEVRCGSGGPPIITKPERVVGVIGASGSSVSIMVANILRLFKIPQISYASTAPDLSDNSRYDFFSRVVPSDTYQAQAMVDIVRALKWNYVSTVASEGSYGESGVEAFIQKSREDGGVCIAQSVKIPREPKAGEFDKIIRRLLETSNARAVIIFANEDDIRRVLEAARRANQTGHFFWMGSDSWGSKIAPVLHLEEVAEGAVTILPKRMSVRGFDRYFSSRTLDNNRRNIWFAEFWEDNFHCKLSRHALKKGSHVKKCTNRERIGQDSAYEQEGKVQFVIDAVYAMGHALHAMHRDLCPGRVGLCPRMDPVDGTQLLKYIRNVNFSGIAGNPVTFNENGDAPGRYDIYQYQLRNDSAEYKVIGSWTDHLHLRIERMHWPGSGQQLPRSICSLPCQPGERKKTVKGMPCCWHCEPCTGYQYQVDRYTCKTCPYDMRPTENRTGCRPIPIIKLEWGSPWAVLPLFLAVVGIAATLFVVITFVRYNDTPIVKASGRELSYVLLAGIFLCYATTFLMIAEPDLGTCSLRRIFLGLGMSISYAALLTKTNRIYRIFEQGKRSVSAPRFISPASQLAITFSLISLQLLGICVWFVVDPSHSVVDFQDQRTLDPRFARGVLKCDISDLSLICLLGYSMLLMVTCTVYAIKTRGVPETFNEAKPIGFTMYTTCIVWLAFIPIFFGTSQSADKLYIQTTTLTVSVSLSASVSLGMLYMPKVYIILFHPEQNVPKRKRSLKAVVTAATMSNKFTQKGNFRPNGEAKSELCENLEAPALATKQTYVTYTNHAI
# Neutrophil collagenase = Neutrophil collagenase (Homo sapiens, UniProt P22894); test: MMP13 inhibition and MMP selectivity, late-stage follow-up, selectivity assay for MMP13 inhibitor project, biochemical, probe development, late stage results, panel member MMP-8 [IC50 Assay] (AID 2067)
# Chain of Neutrophil collagenase (P22894 whole entry): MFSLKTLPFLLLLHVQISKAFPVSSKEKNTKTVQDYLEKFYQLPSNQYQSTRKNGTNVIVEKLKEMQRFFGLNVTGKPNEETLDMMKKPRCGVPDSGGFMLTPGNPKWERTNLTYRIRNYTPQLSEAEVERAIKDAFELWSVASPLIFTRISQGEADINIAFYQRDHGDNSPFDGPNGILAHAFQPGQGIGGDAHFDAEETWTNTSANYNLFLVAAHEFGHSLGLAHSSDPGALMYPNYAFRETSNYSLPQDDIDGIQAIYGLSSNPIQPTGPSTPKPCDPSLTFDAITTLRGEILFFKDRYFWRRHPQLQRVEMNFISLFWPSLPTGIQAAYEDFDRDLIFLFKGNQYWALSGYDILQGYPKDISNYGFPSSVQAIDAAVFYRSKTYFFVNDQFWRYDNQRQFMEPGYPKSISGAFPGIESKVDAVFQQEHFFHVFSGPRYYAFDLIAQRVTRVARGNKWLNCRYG
# [12] = inhibition of K1F phage lysis, E. coli UTI89, bacterial capsule biogenesis inhibitors, alamar blue (AID 488966); type: functional
# [13] = biological target: Dual specificity protein phosphatase 3 (Homo sapiens, UniProt P51452); test: VHR1 inhibitor Ki determination, SAR follow-up, biochemical, colorimetric (AID 2004)
# Chain of Dual specificity protein phosphatase 3 (P51452 whole entry): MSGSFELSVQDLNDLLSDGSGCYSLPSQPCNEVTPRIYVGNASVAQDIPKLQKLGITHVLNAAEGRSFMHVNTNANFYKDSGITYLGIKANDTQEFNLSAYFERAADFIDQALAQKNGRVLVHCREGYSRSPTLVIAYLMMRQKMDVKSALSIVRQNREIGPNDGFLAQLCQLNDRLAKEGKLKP
# Cytochrome P450 2C9 = Cytochrome P450 2C9 (Homo sapiens, UniProt P11712); settings: Potency
# Chain of Cytochrome P450 2C9 (P11712 whole entry): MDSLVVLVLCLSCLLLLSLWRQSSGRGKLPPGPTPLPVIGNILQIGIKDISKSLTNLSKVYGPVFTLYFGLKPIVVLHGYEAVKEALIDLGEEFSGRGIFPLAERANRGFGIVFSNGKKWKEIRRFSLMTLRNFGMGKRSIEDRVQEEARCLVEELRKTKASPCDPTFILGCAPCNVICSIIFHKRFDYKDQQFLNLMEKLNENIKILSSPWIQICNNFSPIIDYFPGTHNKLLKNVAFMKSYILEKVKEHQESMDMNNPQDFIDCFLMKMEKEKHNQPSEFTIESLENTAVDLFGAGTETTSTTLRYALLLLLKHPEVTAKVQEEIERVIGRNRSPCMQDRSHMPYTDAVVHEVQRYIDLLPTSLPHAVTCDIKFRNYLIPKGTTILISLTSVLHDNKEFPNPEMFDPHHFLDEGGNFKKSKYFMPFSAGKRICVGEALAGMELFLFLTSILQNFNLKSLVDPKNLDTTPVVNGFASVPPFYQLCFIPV
# [14] = blockers of SFLLRN-triggered platelet ATP secretion – cell-based, human platelets, luminescence, dry powder, dose response (AID 493100); type: functional
# [15] = biological target: Mothers against decapentaplegic homolog 3 (Homo sapiens, UniProt P84022); test: Smad3 binding inhibitors, lysate ELISA, dose response, cell lysate, secondary confirmation, chemiluminescent ELISA, HEK293 lysate (AID 1058); type: functional
# MDA-MB-435 = test: cells; type: functional, cell-based; settings: Homo sapiens
# cells [16] = type: functional, cell-based; settings: PPC-1
# [17] = NIH-3T3 fibroblast cytotoxicity, dose response, cytotoxicity control, cell-based, fluorescence, Alamar Blue, secondary assay (AID 2327); type: functional;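 also: NIH-3T3 mouse fibroblasts cultured with fluconazole at 8 µg/mL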
# HEK293 [18] = test: NOD1 signaling inhibitors, primary screen, cell-based, luminescence, uHTS (AID 1578); type: functional; settings: Homo sapiens
# HEK293 [19] = test: cells; type: functional, cell-based; settings: Homo sapiens
# [20] = C. albicans growth with fluconazole, confirmation, fluorescence, retest (AID 2467); type: functional, cell-based
# HEK293 [21] = test: cells; type: functional, cell-based; settings: Homo sapiens; remark: listed apart in the source
# [22] = biological target: Nucleotide-binding oligomerization domain-containing protein 2 (Homo sapiens, UniProt Q9HC29); test: NOD2 signaling inhibitors, cell-based, luminescence, uHTS, HEK293 (AID 1566); type: functional
# HEK293 [23] = test: NOD2 signaling inhibitors in MDP-stimulated cells, cell-based, uHTS, luminescence (AID 2001); type: functional; settings: Homo sapiens
# HEK293 [24] = test: cells; type: functional, cell-based; settings: Homo sapiens; remark: listed apart in the source
# [25] = cytotoxicity in HEK-293T cells, dose response, cytotoxicity control for BCR NF-kB inhibitor project, luminescence, B-cell screen hits (AID 489021); type: functional, cell-based;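 also: HEK-293T cells carrying an NF-kB luciferase reporter; cells exposed to compound for about 14 hours before viability readout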
# [26] = inhibitors of firefly luciferase expression or activity, dose response, H4 neuroglioma cells, luminescence (AID 1990); type: functional, cell-based
# [27] = luciferase reporter signal reduction – luminescence, H4-C neuroglioblastoma cells, dose response (AID 2458); type: functional, cell-based;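 also: H4 neuroglioblastoma cells stably carrying a luciferase reporter gene fusion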
# BJ [28] = test: cytotoxicity toward BJ-TERT fibroblasts, dose response, cell-based, RAS-independent, luminescence (AID 1933); type: functional; settings: Homo sapiens
# cells [29] = type: functional, cell-based
# [30] = Luminescence Cell-Based Dose Response HTS to Identify Inhibitors of 5'UTR Stem-Loop Driven Prion Protein mRNA Translation in H4 Neuroglioblastoma Cells. [Related pubchem assays: 1827 (Project Summary), 1813 (Primary HTS)]; type: functional
# [31] = inhibitors of SNCA 5'UTR-driven reporter translation, confirmation, H4 neuroglioma cells, luminescence (AID 1988); type: functional, cell-based
# BJ [32] = test: cells; type: functional, cell-based; settings: Homo sapiens
# BJ [33] = test: cytotoxicity toward BJ-TERT-LT-ST fibroblasts, dose response, cell-based, RAS-independent, luminescence (AID 1935); type: functional; settings: Homo sapiens;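 also: BJ fibroblasts immortalized with TERT plus LT and ST oncogenes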
# [34] = cytotoxicity toward DRD oncogenic fibroblasts, dose response, cell-based, non-viral oncogenic, luminescence (AID 1934); type: functional; settings: Homo sapiens
# [35] = inhibitors of SNCA 5'UTR-driven translation, confirmation, luminescence, H4 neuroglioblastoma cells, dose confirmation (AID 2454); type: functional, cell-based;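 also: H4 neuroglioblastoma cells carrying an alpha-synuclein 5'UTR luciferase reporter; potency for inhibition of the luciferase signal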
# BJ [36] = test: cytotoxicity toward Ras-transformed BJeLR fibroblasts, dose response, cell-based, alamar blue fluorescence, cherrypicked samples (AID 2631); type: functional; settings: Homo sapiens;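 also: confirmatory dose-response assay in RAS-dependent BJ fibroblasts engineered with TERT, LT and ST, with cytotoxicity read by fluorescence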
# [37] = biological target: T2, Neuropeptide Y receptor type 2 (Homo sapiens, UniProt P49146); test: Fluorescence-based counterscreen for agonists of NPY-Y1: cell-based high-throughput dose response assay for agonists of NPY-Y2.; type: functional
# T2 sequence (P49146 whole entry): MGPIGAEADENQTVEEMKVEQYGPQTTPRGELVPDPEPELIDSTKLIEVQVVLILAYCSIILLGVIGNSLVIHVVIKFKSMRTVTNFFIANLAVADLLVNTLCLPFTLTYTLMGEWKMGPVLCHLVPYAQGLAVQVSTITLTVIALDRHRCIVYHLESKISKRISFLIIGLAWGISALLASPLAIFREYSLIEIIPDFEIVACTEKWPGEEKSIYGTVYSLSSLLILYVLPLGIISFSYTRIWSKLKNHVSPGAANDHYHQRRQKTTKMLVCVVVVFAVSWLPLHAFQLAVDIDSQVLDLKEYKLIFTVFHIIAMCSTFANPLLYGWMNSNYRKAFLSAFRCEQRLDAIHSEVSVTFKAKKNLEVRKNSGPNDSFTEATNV
# HEK293 [38] = test: Fluorescence-based counterscreen for potentiators or agonists of NPY-Y1: cell-based high-throughput dose response assay for inhibitors of cyclic nucleotide gated ion channel (CNGC) activity. In this assay, the parental HEK293 cell line transfected with a cyclic-nucleotide gated ion channel (CNGC)-based cAMP sensor is used to measure inhibition of isoproterenol-induced CNGC …; type: functional; settings: Homo sapiens
# [39] = biological target: T3, Neuropeptide Y receptor type 1 (Homo sapiens, UniProt P25929); test: Fluorescence-based dose response cell-based high-throughput screening assay for agonists of NPY-Y1. [Related pubchem assays: 1697 (Screening assay (NPY-Y1 agonists).), 1359 (Screening assay (NPY-Y2 potentiators or agonists).), 1304 (Screening assay (NPY-Y1 potentiators or agonists).), 1704 (Screening assay (CNGC inhibitors).), 1791 (Summary AID.)]; type: functional
# T3 sequence (P25929 whole entry): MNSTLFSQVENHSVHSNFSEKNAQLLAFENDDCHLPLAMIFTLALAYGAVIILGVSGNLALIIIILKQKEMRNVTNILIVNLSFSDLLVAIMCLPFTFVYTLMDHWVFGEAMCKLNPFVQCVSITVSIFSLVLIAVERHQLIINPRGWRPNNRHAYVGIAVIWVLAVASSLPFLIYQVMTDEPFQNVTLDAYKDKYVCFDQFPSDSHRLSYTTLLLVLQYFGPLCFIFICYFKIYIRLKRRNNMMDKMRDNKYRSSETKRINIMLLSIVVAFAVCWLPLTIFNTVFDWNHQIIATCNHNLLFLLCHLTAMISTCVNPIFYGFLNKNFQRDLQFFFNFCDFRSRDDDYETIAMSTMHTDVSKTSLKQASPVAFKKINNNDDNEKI
# Chain of Cyclin-dependent kinase 5/CDK5 activator 1 (Q00535 whole entry): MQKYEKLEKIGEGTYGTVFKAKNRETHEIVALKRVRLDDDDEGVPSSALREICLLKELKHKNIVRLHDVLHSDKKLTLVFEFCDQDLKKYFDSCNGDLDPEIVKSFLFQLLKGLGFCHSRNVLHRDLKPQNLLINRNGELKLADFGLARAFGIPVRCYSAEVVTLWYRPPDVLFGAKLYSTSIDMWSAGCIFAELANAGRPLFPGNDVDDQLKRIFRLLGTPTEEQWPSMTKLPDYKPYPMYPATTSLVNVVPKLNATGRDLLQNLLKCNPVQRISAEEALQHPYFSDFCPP
# Chain of Cyclin-dependent kinase 5/CDK5 activator 1 (Q15078 whole entry, further chain): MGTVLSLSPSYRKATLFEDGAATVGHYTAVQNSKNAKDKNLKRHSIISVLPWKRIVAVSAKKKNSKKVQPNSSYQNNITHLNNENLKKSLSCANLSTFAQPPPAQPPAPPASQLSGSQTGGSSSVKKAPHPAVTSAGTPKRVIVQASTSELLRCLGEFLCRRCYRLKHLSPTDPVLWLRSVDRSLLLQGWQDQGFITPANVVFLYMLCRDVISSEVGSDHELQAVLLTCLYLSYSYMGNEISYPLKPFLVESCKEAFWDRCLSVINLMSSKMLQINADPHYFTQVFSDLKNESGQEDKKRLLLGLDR
compound,measurement,setting,value
O=[N+]([O-])c1ccc2c(c1)-c1ccccc1C2=NO,AC50,[1],8.4 µM (active)
same,AC50,[2],3.93 µM (active)
COc1ccc(C(CCN2CCCCC2)c2c(OC)cc(OC)c3c(-c4ccccc4)cc(=O)oc23)cc1 (stereo not given),CC50,[3],20.5 µM (active)
same,EC50,[4],14.7 µM (active)
same,IC50,[5],12.6 µM (active)
same,AC50,INS1,10.7 µM (active)
Cc1onc(-c2ccccc2Cl)c1C(=O)N1C=CC(C(F)(F)F)=NCC1,IC50,[6],8.66 µM (active)
Cc1ccc(C2c3c(oc4cc(C)c(C)cc4c3=O)C(=O)N2CCCN2CCOCC2)cc1 (stereo not given),CC50,[7],44.4 µM (active)
O=C(Nc1cccc(C(F)(F)F)c1)NC1CCN(S(=O)(=O)c2ccc(F)cc2)CC1,Absolute IC50 (CHOP),[8],10 µM
same,Absolute IC50 (XBP1),X-box-binding protein 1,10 µM
COc1ccc(NC(=O)c2ccccn2)cc1OC,EC50,[9],> 112 µM (not active)
same,EC50,[10],42.7 µM (active)
same,EC50,[11],3.65 µM (active)
Cc1ccc(CSc2nc3c(c(=O)[nH]2)CCC3)cc1,IC50,Neutrophil collagenase,> 39.8 µM (inactive)
O=C(Nc1ccc(N2CCOCC2)cc1)c1ccc2ncsc2c1,IC50,[12],> 150 µM (active)
Cc1cccc(COc2ccc3c(c2)oc(=O)c2ccccc23)c1,Ki,[13],26.4 µM (inactive)
C=CCOC(=O)C(C(C)=O)C(NC(=O)OC)c1ccc(Cl)cc1 (stereo not given),AC50,Cytochrome P450 2C9,3.16 µM (inconclusive)
CCCC(=O)Nc1cccc(NC(=O)c2ccccc2F)c1,AC50,[14],31.5 µM (active)
COc1ccc(C(c2cc3c(cc2O)OCO3)N2CCCCC2)cc1OC (stereo not given),IC50,[15],> 40 µM (not active)
CSc1nc(-c2ccccc2)nc(C(C)C)n1,IC50,MDA-MB-435,> 10 µM (inactive)
same,IC50,cells [16],> 10 µM (inactive)
COc1ccc(-c2n(Cc3ccccc3)c3ccccc3[n+]2Cc2ccccc2)cc1,EC50,[17],> 150 µM (inactive)
same,EC50,HEK293 [18],4.23 µM (active)
same,IC50,HEK293 [19],1.21 µM (active)
same,EC50,[20],> 38 µM (not active)
same,IC50,HEK293 [21],11.7 µM (active)
same,EC50,[22],9.35 µM (active)
same,IC50,HEK293 [23],3.69 µM (active)
same,IC50,HEK293 [24],> 20 µM (inactive)
same,IC50,[25],> 80 µM (inactive)
same,AC50,INS1,3.85 µM (active)
COc1ccc(S(=O)(=O)N2c3ccc(F)cc3CCC2C)cc1 (stereo not given),EC50,[26],1.8 µM (active)
same,EC50,[27],0.757 µM (active)
same,EC50,BJ [28],0.675 µM (active)
same,EC50,cells [29],> 12 µM (inconclusive)
same,EC50,[30],< 0.1 µM (active)
same,EC50,[31],< 0.1 µM (active)
same,EC50,BJ [32],1.21 µM (inconclusive)
same,EC50,BJ [33],0.716 µM (inconclusive)
same,EC50,[34],0.776 µM (active)
same,EC50,[35],1.01 µM (active)
same,EC50,BJ [36],0.25 µM (active)
CSc1nc(-c2ccco2)nn1C(=O)c1ccccc1Cl,EC50,[37],> 35.4 µM (not active)
same,IC50,HEK293 [38],> 35.4 µM (not active)
same,EC50,[39],> 35.4 µM (not active)
